For one data set, the system named is Apis mellifera. Conditions: acute; oral; unspecified; mortality.
The next data set deals with Bibionidae. Conditions: chronic/long-term; duration: 28 days; body weight.
The next data set deals with Cyprinus carpio. Conditions: acute; duration: 96 hours; mortality.
The next data set concerns Daphnia magna. As to conditions: chronic/long-term; duration: 21 days; body weight.
The test system of the next data set is Oncorhynchus mykiss. Conditions: acute; duration: 96 hours; mortality.
The next data set concerns Pimephales promelas. As to conditions: chronic/long-term; duration: 28 days; body weight.
In a further data set the test system is Aphidius rhopalosiphi. Briefly: LR50; higher = less toxic. As to conditions: acute; duration: 48 hours; mortality.
The subject of the next data set is Typhlodromus pyri. Briefly: LR50; higher = less toxic. Conditions: acute; duration: 7 days; mortality.

Results on one molecule are retold here after EPA's ToxValDB 9.5 (doi:10.2903/j.efsa.2014.3805).

In brackets after ≈: the same amount, converted by molar mass.

One may read the NOAEL as the highest tested level that showed no adverse finding. Regarding `COc1ccccc1N1CCS/C1=C(/C#N)Sc1cc(C(F)(F)F)ccc1F` [Flutianil], the LD50 is more than 100 µg/piece in the data set with Apis mellifera; more than 2250 mg/kg in the data set with Colinus virginianus (acute, oral, mortality); more than 2000 mg/kg with Rattus norvegicus (acute, oral, mortality). The NOEC was determined as 396 mg/kg in the data set on Bibionidae; 0.00697 mg/L with Daphnia magna; 0.000781 mg/L with Pimephales promelas; 6.25 mg/kg in the data set with Tagia sp. (chronic/long-term, duration: 8 weeks, reproduction). Further, the NOAEL in the data set on Colinus virginianus (reproduction developmental) was determined as 186 mg/kg-day; in the data set with Rattus norvegicus (chronic, duration: 2 years, histopathology: nonneoplastic) it was 81.9 mg/kg-day; with Rattus norvegicus (developmental, development) it was 100 mg/kg-day; in the data set on Rattus norvegicus (reproduction developmental, organ weight), 123 mg/kg-day. The LC50 is more than 0.87 mg/L in the data set on Cyprinus carpio; 0.051 mg/L (≈ 0.12 µM) with Oncorhynchus mykiss; more than 500 mg/kg with Tagia sp. (acute, duration: 14 days, mortality). The LR50 in the data set on Aphidius rhopalosiphi and with Typhlodromus pyri was more than 480 g/ha in each case.
